Assay results as given in patent US11576987B2, “Compositions and methods of treating melanoma” (UNIVERSITY OF IOWA RESEARCH FOUNDATION, priority 2016, dated 2023).
Structures can show the parent of a compound that is named as a salt.

Experiments:
[1] = cited from earlier work
metastatic melanoma = details: cited from earlier work
[2] = tested on: BRAFi-resistant A375VR cells; test: Clonogenic survival of BRAFi-resistant melanoma cells; format: cell-based, human; details: in combination with 5 μM vemurafenib, up to 6 days, PBA as low as 500 μM
Experimental: FIGS. 13A-13B. PBA treatment promotes cell death of BRAFi-resistant metastatic melanoma and upregulates MCR1 expression in a time dpe. (A) BRAFi-resistant A375VR cells were incubated with 5 μM vemurafenib in combination with ER-stress-relieving drug 4-PBA for up to 6 days. […] (B) Flow cytometry analysis of MCR1 expression in A2058 and A375 malignant melanoma cells. Cells were treated with 3 mmole 4-PBA for 4 h and 24 h (n=3). The treated and untreated (control) cells were stained with anti-MC1R-phycoerythrin (PE) monoclonal antibody conjugate. Fluorescence intensity was corrected by auto-fluorescence of cells without staining and data were expressed as relative fluorescence intensity (IF) (vs. control)±SD.
Accumulation of misfolded-proteins causes upregulation and detachment of ER resident protein GRP78 from ER sensors proteins—activating the unfolded protein response (UPR) and downstream signaling pathways (including autophagy). […] Thus, the potential for a pharmacological treatment that would sensitize BRAFi-resistant cells to BRAFi by reducing ER-stress was considered. BRAFi-resistant A375VR melanoma cells were incubated with BRAFi vemurafenib alone and in combination with ER-stress relieving PBA.

MC1R expression = test: Real-time PCR analysis of MC1R expression in melanoma cells; format: cell-based, human; details: substantiated by flow cytometry and radiopeptide binding
Experimental: FIG. 10. Real-time PCR analysis of MC1R expression in A2058 and MEWO melanoma cells. A2058 cells were exposed to BRAFi GSK2118436, MEKi GSK1120212 and HDACi PBA for 24 h. Similarly, MEWO cells were treated with PBA and SAHA. Total RNA was isolated and reverse transcripted to cDNA. Real-time PCR was performed using 50 ng of each cDNA sample with labeled primer VIC-MC1R and FAM-NADPH. mRNA fold changes were calculated by ΔΔCt method and expressed as (n=3; Mean±SEM).
qPCR measurements are included to measure the change in MCR1 mRNA with changes in the concentration and incubation time for each drug and combinations (FIG. 10). These experiments are carried out as in FIG. 10 according to manufacturers' protocols, cells are seeded into 6-well plates until ˜80% confluent. After drug treatments, total RNA is isolated (Qiagen RNeasy Mini Kit). 1 μg of total RNA from each cell sample is used for reverse transcription using a high capacity reverse transcription kit (Applied Biosystem). cDNA samples are kept at −80° C. until use. Upon use, cDNA templates are employed in the qRT-PCR using a Taqman Gene Expression Assay for human MC1R (Assay ID: Hs00267167_s1). Human 18S (Assay ID: Hs99999901_s1) and human GAPDH (Assay ID: Hs03929097_g1) are used as housekeeping gene controls. […] Reactions are carried out in Applied Biosystem 7900HT. mRNA level is calculated by comparative ΔΔCt method.

MCR1 = target: T1, MCR1 (Homo sapiens, UniProt Q01726); test: Radiobinding assay with [125I]-NDP-a-MSH after drug incubation; format: cell-based; details: SK-MEL3 and A2058 BRAF^V600E, 4 hours incubation, relative to untreated controls
T1 construct: endogenous in cells; host or cells: SK-MEL3 BRAF V600E and A2058 BRAF V600E human melanoma cells
Experimental: FIGS. 11A-11D. MCR1 expression can be enhanced in human melanoma cells by incubation with PBA and FDA approved melanoma drugs. (A-B) Flow cytometry analysis of MC1R expression in human melanoma cells: (A) SK-MEL3 BRAF^V600E; (B) A2058 BRAF^V600E; incubated for 4 hours with clinically-relevant concentrations of BRAFi: PLX4032 (10 μM), GSK2118436 (2 μM); MEKi: GDC0973 (2 μM), GSK1120212 (2 μM); 4-PBA (4 mM). Cells were stained with anti-MC1R-phycoerythrin (PE) monoclonal antibody conjugate. Fluorescence intensity was corrected by PE-conjugated isotype. Data were expressed as normalized mean fluorescence intensity (NMFI; n=4±SD; *p<0.05). […] (C) SK-MEL3 BRAF^V600E; and (D) A2058 BRAF^V600E was confirmed by radiobinding assay using MCR1-specific peptide [^125I]-NDP-a-MSH following incubation for 4 hours with PBA and FDA approved drugs (as in FIG. 10). […] Binding expressed as radioactivity bound relative to untreated controls (same cells) (n=4±SD; *p<0.05).
PCR measurements give information on the cellular response to drug treatments, but competitive binding assays convey a specific measure of changes in receptor expression (protein level) and changes in ligand-binding interactions as a result of drug treatments (FIGS. 11A-11B). After drug treatments, receptor expression is determined using synthetic α-MSH analog [^125I]-Nle^4-D-Phe^7-alpha-MSH ([^125I]-NDP-MSH) routinely as in FIG. 16D. […]

## O=C(O)CCCc1ccccc1 [PBA, 4-phenylbutyric acid, sodium salt]
[1]
  solubility in acetone and diethyl ether: practically insoluble
  solubility in methanol: freely soluble
  solubility in water: soluble in water
Metastatic melanoma
  tolerated dose in patients: up to 27 g/day
[2]
  clonogenic cell death: ~90%
MC1R expression
  MCR1 expression by RT-PCR: Enhanced expression of MCR1
MCR1
  binding of MCR1-specific peptide [125I]-NDP-a-MSH: increases binding of MCR1-specific peptides
